Laboratory results from US20110039815A1, “MACROCYCLIC METAL COMPLEXES FOR THEIR USE AS ANTICANCER AGENTS” (priority 2005, published 2011).

Tests used:
[1] = rat, intravenous injection, approximately 172 mg/kg during a six hour period, 0.7% saline
[2] = test system: cervical cancer cell line Hela S3; assay: Cell death of cervical cancer cell line Hela S3; format: cell-based

^Me3TacnRhCl3 [formula 8]
stability in water: stable
complex-related toxicity or side effects [1]: no complex-related toxicity or side effects
anticancer activity against Hela S3 [2]: positive
Hela cell death rate ([2]; 10^−2 molar preparation (1.5×10^−2 M)): approximately 93.1%
Hela cell death rate ([2]; 10^−3 molar preparation (1.5×10^−3 M)): approximately 90%
